Key:
[1] = molecular target: CBR; test: In vitro CBR binding, displacement of [3H]flunitrazepam; set-up: species or system rat; conditions: for Ki: displacement of [3H]flunitrazepam from rat cerebrocortical samples, mean of three experiments in duplicate
Description: Binding affinity and selectivity to the 18-kDa translocator protein TSPO and to CBR were assessed using in vitro receptor binding assays. These experiments were carried out as described by Denora et al[34].

[2] = molecular target: T1, TSPO (Rattus norvegicus, UniProt P16257); conditions: ratio of Ki values, higher affinity of CB251
T1 sequence (P16257 whole entry): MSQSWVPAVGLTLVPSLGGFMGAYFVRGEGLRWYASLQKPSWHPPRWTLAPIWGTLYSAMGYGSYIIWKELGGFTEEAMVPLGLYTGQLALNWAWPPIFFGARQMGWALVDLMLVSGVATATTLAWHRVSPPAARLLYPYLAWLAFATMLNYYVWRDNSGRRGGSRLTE

[3] = molecular target: T1, TSPO; test: biochemical
[4] = molecular target: TSPO; set-up: method as in PMID 19948230; conditions: literature value ref 25; cited from earlier work

In the case of `CCCN(CCC)C(=O)Cc1c(-c2ccc(OCCF)cc2)nc2c(Cl)cc(Cl)cn12` [CB251, 2-(2-(4-(2-Fluoroethoxy)phenyl)-6,8-dichloroimidazo[1,2-a]pyridin-3-yl)-N,N-dipropylacetamide], the Ki [1] is reported as > 100000 nM, the “binding to CBR” value ([1]; result in words) is reported as “below the detection limit” and the “TSPO binding affinity relative to PK 11195” value [2] is reported as 5 times. For the same molecule, the “TSPO binding affinity relative to PBR28” value ([2]; PBR28 Ki from ref 25) was 22 times and the Ki [3] was 0.27 ± 0.09 nM.
In the case of `COc1ccccc1CN(C(C)=O)c1cnccc1Oc1ccccc1` [PBR28], the Ki [4] is listed as 6.1 ± 6.4 nM.
With `CCC(C)N(C)C(=O)c1cc2ccccc2c(-c2ccccc2Cl)n1` (centres unmarked) [PK 11195, reference compound] the Ki [1] was > 100000 nM.
For `CN1C(=O)CN=C(c2ccccc2F)c2cc([N+](=O)[O-])ccc21` [flunitrazepam, reference compound], the Ki [1] was 5.11 ± 0.87 nM.
